Tested on: Aβ 40 in conditioned media of cells stably expressing Amyloid Precursor Protein (APP)
Test: BACE Cell-Based Assay (Aβ40 in conditioned medium, sandwich ELISA)
Conditions: 24 hours of incubation with the test compounds, Aβ 40 by sandwich ELISA, read-out: IC50 values in the cell-based assay (inhibition of Aβ 40)
Procedure: The cell-based assay measures inhibition or reduction of Aβ40 in conditioned medium of test compound treated cells, which express amyloid precursor protein.
Cells stably expressing Amyloid Precursor Protein (APP) were plated at a density of 40K cells/well in 96 well plates (Costar). The cells were cultivated for 24 h at 37° C. and 5% CO2 in DMEM supplemented with 10% FBS. The test compounds were then added to cells in 10-point dose response concentrations with the starting concentration being either 100 μM or 10 μM. The compounds were diluted from stock solutions in DMSO and the final DMSO concentration of the test compounds on cells was 0.1%. After 24 hours of incubation with the test compounds the supernatant conditioned media was collected and the Aβ 40 levels were determined using a sandwich ELISA. The IC50 of the compound was calculated from the percent of control or percent inhibition of Aβ 40 as a function of the concentration of the test compound.
The sandwich ELISA to detect Aβ 40 was performed in 96 well microtiter plates, which were pre-treated with goat anti-rabbit IgG (Pierce). The capture and detecting antibody pair that were used to detect Aβ 40 from cell supernatants were affinity purified pAb40 (Biosource) and biotinylated 6E10 (Signet Labs Inc.), respectively. The optimal concentration for the pAb40 antibody was 3 μg/ml in Superblock/TBS (Pierce) that was supplemented with 0.05% Tween 20 (Sigma). Optimal concentration for the detection antibody 6E10-biotinylated was […] in Superblock/TBS (Pierce) that had been supplemented with 2% normal goat serum and 2% normal mouse serum.
Cellular supernatants were incubated with the capture antibody for 3 h at 4° C., followed by 3 wash steps in TBS-tween (0.05%). The detecting antibody incubation was for 2 h at 4° C., again followed by the wash steps as described previously. The final readout of the ELISA is Time-Resolved Fluorescence (counts per minute) using Delfia reagents Streptavidin-Europium and Enhancement solutions (Perkin Elmer) and the Victor 2 multilabel counter (Perkin Elmer).

IC50, ≤ 5 µM:
CCc1ccc2c(c1)C(NC[C@@H](O)[C@H](Cc1ccccc1)NC(=O)c1cc(C#N)c(=O)n(C3CCCC3)c1)CC1(CCCC1)O2 (stereo partly drawn) [Example 1]
CCc1ccc2c(c1)C(NC[C@@H](O)[C@H](Cc1ccccc1)NC(=O)c1ccc(=O)n(C3CCCC3)c1)CC1(CCCC1)O2 (stereo partly drawn) [Example 2]
CCc1ccc2c(c1)C(NC[C@@H](O)[C@H](Cc1ccccc1)NC(=O)c1cc(-c3ccccc3F)c(=O)n(C3CCCC3)c1)CC1(CCCC1)O2 (stereo partly drawn) [Example 3]
CCc1ccc2c(c1)C(NC[C@@H](O)[C@H](Cc1ccccc1)NC(=O)c1cc(-c3ccccn3)c(=O)n(C3CCCC3)c1)CC1(CCCC1)O2 (stereo partly drawn) [Example 5]
CCc1ccc2c(c1)C(NC[C@@H](O)[C@H](Cc1ccccc1)NC(=O)c1cc(-n3cccn3)c(=O)n(C3CCCC3)c1)CC1(CCCC1)O2 (stereo partly drawn) [Example 6]
CCc1ccc2c(c1)C(NC[C@@H](O)[C@H](Cc1ccccc1)NC(=O)c1cc(-c3ccc(F)cc3)c(=O)n(C3CCCC3)c1)CC1(CCCC1)O2 (stereo partly drawn) [Example 7]
CCc1ccc2c(c1)C(NC[C@@H](O)[C@H](Cc1ccccc1)NC(=O)c1cc(-c3ccccc3)c(=O)n(C3CCCC3)c1)CC1(CCCC1)O2 (stereo partly drawn) [Example 8]
CCc1ccc2c(c1)C(NC[C@@H](O)[C@H](Cc1ccccc1)NC(=O)c1cc(-c3cccc(F)c3)c(=O)n(C3CCCC3)c1)CC1(CCCC1)O2 (stereo partly drawn) [Example 9]
CCc1ccc2c(c1)C(NC[C@@H](O)[C@H](Cc1ccccc1)NC(=O)c1ccc(=O)n(C3CCC(c4ccccc4)C3)c1)CC1(CCCC1)O2 (stereo partly drawn) [Example 10]
CCc1ccc2c(c1)C(NC[C@@H](O)[C@H](Cc1ccccc1)NC(=O)c1ccc(=O)n(C3CCCC(c4ccccc4)C3)c1)CC1(CCCC1)O2 (stereo partly drawn) [Example 12]
CCc1ccc2c(c1)C(NC[C@@H](O)[C@H](Cc1ccccc1)NC(=O)c1cc(-c3cccnc3)c(=O)n(C3CCCC3)c1)CC1(CCCC1)O2 (stereo partly drawn) [Example 14, 1-cyclopentyl-N-((2S,3R)-4-(6-ethyl-2,2-spirocyclopentylchroman-4-ylamino)-3-hydrodroxy-1-phenylbutan-2-yl)-6-OXO-5-(pyridine-3-yl)-1,6-dihydropyridine-3-carboxamide]
CCc1ccc2c(c1)C(NC[C@@H](O)[C@H](Cc1ccccc1)NC(=O)c1cc(-c3ccncc3)c(=O)n(C3CCCC3)c1)CC1(CCCC1)O2 (stereo partly drawn) [Example 15, 1-cyclopentyl-N-((2S,3R)-4-(6-ethyl-2,2-spirocyclopentylchroman-4-ylamino)-3-hydrodroxy-1-phenylbutan-2-yl)-6-OXO-5-(pyridin-4-yl)-1,6-dihydropyridine-3-carboxamide]
CCc1ccc2c(c1)C(NC[C@@H](O)[C@H](Cc1ccccc1)NC(=O)c1cc(-c3cncnc3)c(=O)n(C3CCCC3)c1)CC1(CCCC1)O2 (stereo partly drawn) [Example 16, 1-cyclopentyl-N-((2S,3R)-4-(6-ethyl-2,2-spirocyclopentylchroman-4-ylamino)-3-hydrodroxy-1-phenylbutan-2-yl)-6-OXO-5-(pyrimidin-5-yl)-1,6-dihydropyridine-3-carboxamide]
CCc1ccc2c(c1)C(NC[C@@H](O)[C@H](Cc1ccccc1)NC(=O)c1cc(N3CCCC3)c(=O)n(C3CCCC3)c1)CC1(CCCC1)O2 (stereo partly drawn) [Example 17, 1-cyclopentyl-N-((2S,3R)-4-(6-ethyl-2,2-spirocyclopentylchroman-4-ylamino)-3-hydrodroxy-1-phenylbutan-2-yl)-6-OXO-5-(pyrrolidin-1-yl)-1,6-dihydropyridine-3-carboxamide]
CCc1ccc2c(c1)C(NC[C@@H](O)[C@H](Cc1ccccc1)NC(=O)c1cc(NC(C)C)c(=O)n(C3CCCC3)c1)CC1(CCCC1)O2 (stereo partly drawn) [Example 18, 1-cyclopentyl-N-((2S,3R)-4-(6-ethyl-2,2-spirocyclopentylchroman-4-ylamino)-3-hydrodroxy-1-phenylbutan-2-yl)-5-(isopropylamino)-6-oxo-1,6-dihydropyridine-3-carboxamide]

Reference: US8163766B2, “Beta-secretase modulators and methods of use” (Amgen Inc., priority 2005, dated 2012)
